From patent publication US20240285555A1, “COMPOSITIONS FOR THE TREATMENT OF COPPER DEFICIENCY AND METHODS OF USE” (priority 2018, published 2024)

Legend:
Assay type in all cases: cell-based, Saccharomyces cerevisiae
[1] = tested on: coa6Δ cells; experiment: Cellular and mitochondrial copper measurements by ICP-MS in yeast; conditions: 20 nM ES
Protocol: FIGS. 2A, 2B, 2C, 2D and 2E illustrate elesclomol supplementation rescues CcO assembly defects by restoring mitochondrial copper levels of yeast S. cerevisiae coa6Δ cells. FIGS. 2A-2C illustrate bioenergetic parameters of wild type (WT), coa6Δ, and coa6Δ cells supplemented with 20 nM ES were cultured in YP galactose medium until early stationary growth phase. […] Error bars represent mean±SD (n=3, two-tailed unpaired Student's t-test *p<0.05, **p<0.005).
Cellular and Mitochondrial Copper Measurements. Cellular and mitochondrial copper levels were measured using the Perkin Elmer DRC II Inductively Coupled Plasma-Mass Spectrometer (ICP-MS). Intact yeast cells and isolated mitochondrial pellets were washed with 100 μM EDTA containing water, weighed, and digested with 40% nitric acid (TraceSELECT, Sigma) at 90° C. for 18 h. Samples were diluted in ultrapure metal-free water (TraceSELECT, Sigma) and analyzed by ICP-MS. Copper standard solutions were prepared by appropriate dilutions of commercially available mixed metal standards (BDH Aristar Plus). Copper concentrations in mammalian cells were also measured by ICP-MS.
ES scavenges copper from the culture medium, enters the cell as an ES-copper complex, and selectively accumulates in mitochondria where it dissociates from copper. […]

[2] = tested on: Yeast coa6Δ cells; experiment: Rescue of respiratory growth of yeast coa6Δ cells in YPGE medium (cell density at 600 nm)
Protocol: FIG. 1 illustrates determination of the median effective dose (ED50) of elesclomol. Yeast coa6Δ cells were cultured in YPGE medium at 37° C. in the presence of increasing concentrations (0.01 nM to 1 μM) of elesclomol (ES). The cell density was measured spectrophotometrically after 58 hours of growth at 600 nm. The data represent the average±SD from three independent measurements.
FIGS. 3A and 3B illustrates elesclomol rescue of respiratory growth of coa6Δ cells is dependent on copper availability. BY4741 WT, FIG. 3A, and coa6Δ, FIG. 3B, cells were cultured in YPGE medium at 37° C. in the presence of 10 nM ES, 20 μM of the copper chelator bathocuproine disulfonic acid (BCS), or a combination of both. The cell density was measured spectrophotoretrically at the indicated time points at 600 nm. The data are representative of two independent experiments.
(§1) Yeast Strains and Culture Conditions. The authenticity of yeast strains was confirmed by PCR as well as by replica plating on dropout plates. Yeast cells were cultured in standard YP growth media including YPD (1% yeast extract, 2% peptone and 2% glucose), YPGal (2% galactose), YPGE (3% glycerol+1% ethanol), or synthetic media (SC glucose). For qualitative growth measurement, 10-fold serial dilutions of overnight cultures were spotted on YPD or YPGE plates and incubated at 30° C. and 37° C. for the indicated period. Growth in liquid media was measured spectrophotometrically at 600 nm.
A number of copper-binding pharmacological agents were tested for their ability to rescue respiratory deficient growth of coa6Δ cells. […] ES rescued the respiratory growth of coa6Δ cells with an ED50 of 0.8 nM (FIG. 1). ES-mediated growth rescue of coa6Δ cells was also observed on solid growth medium containing a non-fermentable carbon. […] To determine the biochemical basis for the observed respiratory rescue of coa6Δ cells, the assembly and activity of CcO-containing mitochondrial respiratory chain supercomplexes was measured by native-polyacrylamide gel electrophoresis blotting and in-gel activity assay, respectively. […]

[3] = tested on: yeast coa6Δ cells expressing patient mutations (W26C, W33R and E54X); experiment: Rescue of yeast coa6Δ cells expressing yeast-human chimeric COA6 with patient mutations; conditions: 10 nM ES
Excerpt: Reagents. All the copper binding compounds were purchased from Sigma-Aldrich, except Elesclomol (ES), which was purchased from Selleckchem. The yeast-human hybrid (hyCOA6) gene construct was codon optimized for yeast and synthesized using GENEART® Gene Synthesis (Life Technologies). The hybrid gene hyCOA6 was cloned into pRS416 plasmid under the control of the yeast Coa6 native promoter. COA6 patient mutations were introduced by site-directed-mutagenesis (Agilent Technologies QuikChange Lightning) using hyCOA6 as a template. All the constructs were sequenced verified.
as §1, with “For qualitative growth measurement, 10-fold serial dilutions of overnight cultures were spotted on YPD or YPGE plates and incubated at 30° C. and 37° C. for the indicated period.” left out
A number of copper-binding pharmacological agents were tested for their ability to rescue respiratory deficient growth of coa6Δ cells. […] To determine the biochemical basis for the observed respiratory rescue of coa6Δ cells, the assembly and activity of CcO-containing mitochondrial respiratory chain supercomplexes was measured by native-polyacrylamide gel electrophoresis blotting and in-gel activity assay, respectively. […]

[4] = tested on: coa6Δpic2Δ cells; experiment: Respiratory growth rescue of coa6Δpic2Δ yeast; conditions: ES supplementation
Protocol: To further corroborate that ES increases mitochondrial copper levels by actively transporting extracellular copper into the cells, copper availability in the extracellular compartment was decreased by co-treatment of ES with a known copper chelator, bathocuproine disulfonate (BCS). […] To determine whether ES is able to bypass a mitochondrial copper transporter, Pic2, ES supplementation in pic2Δ and coa6Δpic2Δ cells was performed.

With `CN(NC(=O)CC(=O)NN(C)C(=S)c1ccccc1)C(=S)c1ccccc1` [ES, elesclomol] the mitochondrial copper levels [1] was “almost complete rescue”, the “total cellular copper levels” value [1] was “moderately increased” and the “ES mediated rescue in the presence of BCS” value ([2]; 10 nM ES with 20 μM BCS) was “diminished”. The “potency relative to copper in rescuing the respiratory growth defect” value ([2]; ES versus copper) was “at least 1000 times”, the EC50 ([2]; Saccharomyces cerevisiae, YPGE medium, 37° C., 0.01 nM to 1 μM ES, cell density at 600 nm after 58 hours, read-out: ED50 of rescue of respiratory growth) was 0.8 nM and the “rescue of respiratory growth” value [3] was “rescued”. The “rescue of respiratory growth” value [4] was “did rescue”.
